Laboratory results: the supplement of paper PMC10307832

Legend:
Assay in all cases: relative viability (nuclei count vs DMSO), 5 days (fraction); higher = more cells survive
[1] = compound: Cc1nc(C(=O)NCC(=O)O)c(O)c2ccc(Oc3ccccc3)cc12 [FG-4592] + Cc1nc(Nc2ncc(C(=O)Nc3c(C)cccc3Cl)s2)cc(N2CCN(CCO)CC2)n1 [Dasatinib] (partner 0.075 µM)
Summary of the method: (§1)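 Lung cancer cell lines in 1536-well plates got either a single drug or a fixed anchor-drug dose together with five library-drug doses (not always all listed) in √10 steps, by pin tool, on the day after seeding. Nuclei were counted after 5 days, and relative viability is the treated-to-vehicle ratio of nuclei counts. Values are medians of duplicate plates.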

[2] = compound: CC1=CC(=C(N1C2=CC=C(C=C2)Cl)C)C(=O)CN3CCCCC3 [IU1-47] + Nc1ncn([C@H]2C[C@H](O)[C@@H](CO)O2)c(=O)n1 [Decitabine] (partner 2 µM)
Summary of the method: as §1

[3] = compound: Cc1nc(C(=O)NCC(=O)O)c(O)c2ccc(Oc3ccccc3)cc12 [FG-4592] + CCNC(=O)c1noc(-c2cc(C(C)C)c(O)cc2O)c1-c1ccc(CN2CCOCC2)cc1 [Luminespib] (partner 0.01 µM)
Summary of the method: as §1

[4] = compound: CC1=CC(=C(N1C2=CC=C(C=C2)Cl)C)C(=O)CN3CCCCC3 [IU1-47] + CC(C)C[C@H](NC(=O)[C@H](Cc1ccccc1)NC(=O)c1cnccn1)B(O)O [Bortezomib] (partner 0.002 µM)
Summary of the method: as §1

Cell Line | relative viability ([1]; first compound 0.08 µM) | relative viability ([1]; first compound 0.253 µM) | relative viability ([1]; first compound 0.8 µM) | relative viability ([1]; first compound 2.53 µM) | relative viability ([1]; first compound 8 µM) | relative viability ([2]; first compound 0.08 µM) | relative viability ([2]; first compound 0.253 µM) | relative viability ([2]; first compound 0.8 µM) | relative viability ([2]; first compound 2.53 µM) | relative viability ([2]; first compound 8 µM) | relative viability ([3]; first compound 0.08 µM) | relative viability ([3]; first compound 0.253 µM) | relative viability ([3]; first compound 0.8 µM) | relative viability ([3]; first compound 2.53 µM) | relative viability ([3]; first compound 8 µM) | relative viability ([4]; first compound 0.08 µM) | relative viability ([4]; first compound 0.253 µM) | relative viability ([4]; first compound 0.8 µM) | relative viability ([4]; first compound 2.53 µM) | relative viability ([4]; first compound 8 µM)
HCC-827 | 0.264 | 0.379 | 0.386 | 0.259 | 0.282 | 0.336 | 0.323 | 0.351 | 0.31 | 0.31 | 0.643 | 0.587 | 0.702 | 0.657 | 0.591 | 1.22 | 1.12 | 1.05 | 1.08 | 1.11
HOP-62 | 0.637 | 0.569 | 0.567 | 0.642 | 0.628 | 0.233 | 0.218 | 0.224 | 0.247 | 0.208 | 0.88 | 0.871 | 0.993 | 0.902 | 0.962 | 0.926 | 1.05 | 0.701 | 0.753 | 0.77
LC-2-ad | 0.513 | 0.559 |  | 0.536 | 0.66 | 0.996 | 0.788 | 0.792 |  | 0.78 | 0.961 | 0.885 |  | 0.932 | 0.926 | 1.03 | 1.08 | 1.1 | 1.03 | 0.97
LCLC-97TM1 | 0.873 | 0.734 | 0.907 | 0.928 | 1.03 | 0.287 | 0.252 | 0.244 |  | 0.234 | 0.763 | 0.728 | 0.854 | 0.695 | 0.797 | 0.9 | 1.13 | 0.455 | 0.425 | 0.261
LCLC-103H | 0.414 | 0.492 | 0.311 | 0.342 | 0.408 | 0.793 | 0.731 | 0.724 | 0.725 | 0.751 | 0.891 | 0.935 | 0.998 | 1.09 | 0.855 | 1.2 | 1.14 | 1.1 | 1.12 | 1.08
LOU-NH91 | 0.554 | 0.521 | 0.512 | 0.559 | 0.533 | 0.909 | 0.854 | 0.797 | 0.816 | 0.797 | 0.275 | 0.342 | 0.299 | 0.325 | 0.367 | 0.515 | 0.473 | 0.483 | 0.535 | 0.451
LU99A | 0.535 | 0.371 | 0.402 | 0.561 | 0.58 | 0.968 | 0.824 | 0.852 | 0.883 | 0.768 | 0.287 | 0.254 | 0.294 | 0.234 | 0.279 | 1.12 | 1.23 | 1.06 | 1.12 | 1.09
LXF-289 | 0.22 | 0.186 | 0.19 | 0.168 | 0.189 | 0.377 | 0.367 | 0.397 | 0.367 | 0.346 | 0.65 | 0.675 | 0.712 | 0.596 | 0.711 | 0.993 | 1.06 | 1.05 | 1.05 | 0.954
NCI-H23 | 0.841 | 0.669 | 0.706 | 0.694 | 0.862 | 0.347 |  | 0.312 | 0.319 | 0.302 | 0.208 | 0.247 | 0.179 | 0.203 | 0.184 | 0.988 | 1.24 | 1.27 | 1.02 | 0.949
